Test results taken from article PMC6001238, “Iterative Chemical Engineering of Vancomycin Leads to Novel Vancomycin Analogs With a High in Vitro Therapeutic Index” (Frontiers in Microbiology, 2018).
≈ marks a conversion by molar mass, not a printed value.

What was measured:
E. faecalis VSE 1 = assay: MIC, broth microdilution, vancomycin-sensitive E. faecalis (VSE 1); format: cell-based, Enterococcus faecalis; details: for MIC: Enterococcus faecalis VSE 1 (vancomycin-sensitive), read-out: MIC; for MIC-fold improvement vs. vancomycin: VSE 1, ratio of MIC of vancomycin and MIC of analogue
In short: (§1)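 CLSI broth microdilution; water and uninoculated-broth controls; one arm supplemented with vancomycin, final 10 μM, given with analogue or control antibiotic.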

E. faecalis VRE 6 = assay: MIC, broth microdilution, vancomycin-resistant E. faecalis VRE 6 (VanA); format: cell-based, Enterococcus faecalis; details: for MIC: Enterococcus faecalis VRE 6 (vancomycin-resistant), read-out: MIC; for MIC-fold improvement vs. vancomycin: VRE 6, ratio of MIC of vancomycin and MIC of analogue
In short: as §1

E. faecalis VRE 53 = assay: MIC, broth microdilution, vancomycin-resistant E. faecalis VRE 53 (VanA); format: cell-based, Enterococcus faecalis; details: for MIC: Enterococcus faecalis VRE 53 (vancomycin-resistant), read-out: MIC; for MIC-fold improvement vs. vancomycin: VRE 53, ratio of MIC of vancomycin and MIC of analogue
In short: as §1

E. faecalis VRE 29 = assay: MIC, broth microdilution, vancomycin-resistant E. faecalis VRE 29 (VanA); format: cell-based, Enterococcus faecalis; details: for MIC: Enterococcus faecalis VRE 29 (vancomycin-resistant), read-out: MIC; for MIC-fold improvement vs. vancomycin: VRE 29, ratio of MIC of vancomycin and MIC of analogue
In short: as §1

E. faecalis VRE 37 = assay: MIC, broth microdilution, vancomycin-resistant E. faecalis VRE 37 (VanA); format: cell-based, Enterococcus faecalis; details: for MIC: Enterococcus faecalis VRE 37 (vancomycin-resistant), read-out: MIC; for MIC-fold improvement vs. vancomycin: VRE 37, ratio of MIC of vancomycin and MIC of analogue
In short: as §1

[1] = tested on: Murine leukemia (L1210) cells; assay: Cytostatic activity, L1210 cell proliferation; format: cell-based; details: mean ± SD of three experiments; highest concentration tested 250 µM; 2 days; read-out: Toxicity (IC50) L1210
In short: (§2)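 Coulter counter cell counts after 37°C culture with compound; IC50 = concentration giving 50% growth inhibition vs negative control. Incubation: L1210 2 d, CEM 3 d, HeLa 4 d. Suspension density before mixing with an equal volume of dilution: 300,000–500,000 cells/mL.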

[2] = tested on: human T-lymphocyte (CEM) cells; assay: Cytostatic activity, CEM cell proliferation; format: cell-based; details: mean ± SD of three experiments; highest concentration tested 250 µM; 3 days; read-out: Toxicity (IC50) CEM
In short: as §2

[3] = tested on: human cervix carcinoma (HeLa) cells; assay: Cytostatic activity, HeLa cell proliferation; format: cell-based; details: mean ± SD of three experiments; highest concentration tested 250 µM; 4 days; read-out: Toxicity (IC50) HeLa
In short: as §2

[4] = tested on: L1210, CEM and HeLa cell lines; assay: Cytostatic activity, average or summary over L1210, CEM and HeLa; format: cell-based; details: average of L1210, CEM and HeLa; read-out: Toxicity (IC50) Average
In short: as §2

[5] = tested on: S. aureus VSSA (ATCC 6538); assay: MIC, broth microdilution, vancomycin-sensitive S. aureus (VSSA/MSSA, ATCC 6538); format: cell-based, Staphylococcus aureus; details: for MIC: Staphylococcus aureus VSSA, read-out: MIC; for MIC-fold improvement vs. vancomycin: VSSA, ratio of MIC of vancomycin and MIC of analogue
In short: as §1

S. aureus VISA/HIP5827 = assay: MIC, broth microdilution, vancomycin-intermediate S. aureus VISA HIP5827; format: cell-based, Staphylococcus aureus; details: for MIC: Staphylococcus aureus VISA/HIP5827, read-out: MIC; for MIC-fold improvement vs. vancomycin: VISA/HIP5827, ratio of MIC of vancomycin and MIC of analogue
In short: as §1

S. aureus VRSA = assay: MIC, broth microdilution, vancomycin-resistant S. aureus (VRSA); format: cell-based, Staphylococcus aureus; details: for MIC: Staphylococcus aureus VRSA, read-out: MIC; for MIC-fold improvement vs. vancomycin: VRSA, ratio of MIC of vancomycin and MIC of analogue
In short: as §1

MRSA KS2 = assay: MIC, broth microdilution, MRSA KS2; format: cell-based, Staphylococcus aureus; details: for MIC-fold improvement vs. vancomycin: MRSA KS2, ratio of MIC of vancomycin and MIC of analogue; for MIC: Staphylococcus aureus MRSA KS2, read-out: MIC
In short: as §1

MRSA KS6 = assay: MIC, broth microdilution, MRSA KS6; format: cell-based, Staphylococcus aureus; details: for MIC-fold improvement vs. vancomycin: MRSA KS6, ratio of MIC of vancomycin and MIC of analogue; for MIC: Staphylococcus aureus MRSA KS6, read-out: MIC
In short: as §1

MRSA KS89 = assay: MIC, broth microdilution, MRSA KS89; format: cell-based, Staphylococcus aureus; details: for MIC-fold improvement vs. vancomycin: MRSA KS8, ratio of MIC of vancomycin and MIC of analogue; for MIC: Staphylococcus aureus MRSA KS8, read-out: MIC
In short: as §1

MRSA KS1 = assay: MIC, broth microdilution, MRSA KS1; format: cell-based, Staphylococcus aureus; details: for MIC-fold improvement vs. vancomycin: MRSA KS1, ratio of MIC of vancomycin and MIC of analogue; for MIC: Staphylococcus aureus MRSA KS1, read-out: MIC
In short: as §1

For `CN[C@H](CC(C)C)C(=O)N[C@H]1C(=O)N[C@@H](CC(N)=O)C(=O)N[C@H]2C(=O)N[C@H]3C(=O)N[C@H](C(=O)N[C@H](C(=O)NCC(=O)Nc4ccc(Oc5ccccc5)cc4)c4cc(O)cc(O)c4-c4cc3ccc4O)[C@H](O)c3ccc(c(Cl)c3)Oc3cc2cc(c3O[C@@H]2O[C@H](CO)[C@@H](O)[C@H](O)[C@H]2O[C@H]2C[C@](C)(N)[C@H](O)[C@H](C)O2)Oc2ccc(cc2Cl)[C@H]1O` [Vanc-71], the MIC (E. faecalis VSE 1) was 0.78 µM (≈ 1.31 µg/mL), the “MIC-fold improvement vs. vancomycin” value (E. faecalis VSE 1) was 2 and the MIC (E. faecalis VRE 6) was 3.13 µM (≈ 5.24 µg/mL). The “MIC-fold improvement vs. vancomycin” value (E. faecalis VRE 6) was 64, the MIC (E. faecalis VRE 53) was 6.25 µM (≈ 10.5 µg/mL) and the “MIC-fold improvement vs. vancomycin” value (E. faecalis VRE 53) was 64. The MIC (E. faecalis VRE 29) was 6.25 µM (≈ 10.5 µg/mL), the “MIC-fold improvement vs. vancomycin” value (E. faecalis VRE 29) was 64 and the MIC (E. faecalis VRE 37) was 6.25 µM (≈ 10.5 µg/mL). The “MIC-fold improvement vs. vancomycin” value (E. faecalis VRE 37) was 64, the IC50 [1] was over 250 µM and the IC50 [2] was 137 ± 41 µM. For the same molecule, the IC50 [3] was 91 ± 36 µM, the IC50 [4] was 159 µM and the MIC [5] was 0.39 µM (≈ 0.653 µg/mL). For the same molecule, the “MIC-fold improvement vs. vancomycin” value [5] was 2, the MIC (S. aureus VISA/HIP5827) was 0.78 µM (≈ 1.31 µg/mL) and the “MIC-fold improvement vs. vancomycin” value (S. aureus VISA/HIP5827) was 8. For the same molecule, the MIC (S. aureus VRSA) was 1.56 µM (≈ 2.61 µg/mL), the “MIC-fold improvement vs. vancomycin” value (S. aureus VRSA) was 64 and the “MIC-fold improvement vs. vancomycin” value (MRSA KS2) was 4. For the same molecule, the MIC (MRSA KS2) was 0.20 µM (≈ 0.335 µg/mL), the “MIC-fold improvement vs. vancomycin” value (MRSA KS6) was 4 and the MIC (MRSA KS6) was 0.20 µM (≈ 0.335 µg/mL). For the same molecule, the “MIC-fold improvement vs. vancomycin” value (MRSA KS89) was 4, the MIC (MRSA KS89) was 0.20 µM (≈ 0.335 µg/mL) and the “MIC-fold improvement vs. vancomycin” value (MRSA KS1) was 4. For the same molecule, the MIC (MRSA KS1) was 0.20 µM (≈ 0.335 µg/mL).

`CN[C@H](CC(C)C)C(=O)N[C@H]1C(=O)N[C@@H](CC(N)=O)C(=O)N[C@H]2C(=O)N[C@H]3C(=O)N[C@H](C(=O)N[C@H](C(=O)NCC(=O)Nc4ccc(F)cc4F)c4cc(O)cc(O)c4-c4cc3ccc4O)[C@H](O)c3ccc(c(Cl)c3)Oc3cc2cc(c3O[C@@H]2O[C@H](CO)[C@@H](O)[C@H](O)[C@H]2O[C@H]2C[C@](C)(N)[C@H](O)[C@H](C)O2)Oc2ccc(cc2Cl)[C@H]1O` [Vanc-16] was tested, and the MIC (E. faecalis VSE 1) was 0.78 µM (≈ 1.26 µg/mL), the “MIC-fold improvement vs. vancomycin” value (E. faecalis VSE 1) was 2 and the MIC (E. faecalis VRE 6) was 12.5 µM (≈ 20.2 µg/mL). The “MIC-fold improvement vs. vancomycin” value (E. faecalis VRE 6) was 16, the MIC (E. faecalis VRE 53) was 25 µM (≈ 40.4 µg/mL) and the “MIC-fold improvement vs. vancomycin” value (E. faecalis VRE 53) was 16. For the same molecule, the MIC (E. faecalis VRE 29) was over 50 µM, the “MIC-fold improvement vs. vancomycin” value (E. faecalis VRE 29) was under 8 and the MIC (E. faecalis VRE 37) was 50 µM (≈ 80.9 µg/mL). For the same molecule, the “MIC-fold improvement vs. vancomycin” value (E. faecalis VRE 37) was 8, the IC50 [1] was over 250 µM and the IC50 [2] was over 250 µM. The IC50 [3] was 184 ± 60 µM, the IC50 [4] was 228 µM and the MIC [5] was 0.78 µM (≈ 1.26 µg/mL). The “MIC-fold improvement vs. vancomycin” value [5] was 1, the MIC (S. aureus VISA/HIP5827) was 0.78 µM (≈ 1.26 µg/mL) and the “MIC-fold improvement vs. vancomycin” value (S. aureus VISA/HIP5827) was 8. The MIC (S. aureus VRSA) was 25 µM (≈ 40.4 µg/mL), the “MIC-fold improvement vs. vancomycin” value (S. aureus VRSA) was 4 and the “MIC-fold improvement vs. vancomycin” value (MRSA KS2) was 1. For the same molecule, the MIC (MRSA KS2) was 0.78 µM (≈ 1.26 µg/mL), the “MIC-fold improvement vs. vancomycin” value (MRSA KS6) was 1 and the MIC (MRSA KS6) was 0.78 µM (≈ 1.26 µg/mL). For the same molecule, the “MIC-fold improvement vs. vancomycin” value (MRSA KS89) was 1, the MIC (MRSA KS89) was 0.78 µM (≈ 1.26 µg/mL) and the “MIC-fold improvement vs. vancomycin” value (MRSA KS1) was 1. The MIC (MRSA KS1) was 0.78 µM (≈ 1.26 µg/mL).
